Data: patent US11306087B2, “Inhibitors of KRAS G12C and methods of using the same” (Amgen Inc., priority 2017, dated 2022)

Tests used:
[1] = test system: Phosphorylation of ERK1/2 in MIA PaCa-2 cells; assay: Phospho-ERK1/2 MSD Assay; format: cell-based; settings: Homo sapiens, 2 hours compound treatment, 10 ng/mL EGF for 10 min, read-out: p-ERK IC50 (MIA PaCa-2)
Experimental: Phospho-ERK1/2 MSD Assay: MIA PaCa-2 (ATCC® CRL-1420™) and A549 (ATCC® CCL-185™) cells were cultured in RPMI 1640 Medium (ThermoFisher Scientific 11875093) containing 10% fetal bovine serum (ThermoFisher Scientific 16000044) and 1× penicillin-streptomycin-glutamine (ThermoFisher Scientific 10378016). Sixteen hours prior to compound treatment, MIA PaCa-2 or A549 cells were seeded in 96-well cell culture plates at a density of 25,000 cells/well and incubated at 37° C., 5% CO2. A compound dose-response titration was diluted in growth media, added to appropriate wells of a cell culture plate, and then incubated at 37° C., 5% CO2 for 2 hours. Following compound treatment, cells were stimulated with 10 ng/mL EGF (Roche 11376454001) for 10 min, washed with ice-cold Dulbecco's phosphate-buffered saline, no Ca^2+ or Mg^2+ (ThermoFisher Scientific 14190144), and then lysed in RIPA buffer (50 mM Tris-HCl pH 7.5, 1% Igepal, 0.5% sodium deoxycholate, 150 mM NaCl, and 0.5% sodium dodecyl sulfate) containing protease inhibitors (Roche 4693132001) and phosphatase inhibitors (Roche 4906837001). Phosphorylation of ERK1/2 in compound-treated lysates was assayed using Phospho-ERK1/2 Whole Cell Lysate kits (Meso Scale Discovery K151DWD) according to the manufacturer's protocol. Assay plates were read on a Meso Scale Discovery Sector Imager 6000, and data were analyzed using a 4-parameter logistic model to calculate IC50 values.

[2] = target: GDP-bound KRAS protein (aa 1-169), containing both G12C and C118A amino acid substitutions (Homo sapiens (Human), UniProt P01116, C118A/G12C); assay: Coupled Nucleotide Exchange Assay; format: biochemical; settings: 5 min compound pre-incubation; inhibition of SOS-mediated nucleotide exchange; AlphaScreen
Experimental: For compounds in Table 2, the following assay conditions were employed: Coupled Nucleotide Exchange Assay: Purified GDP-bound KRAS protein (aa 1-169), containing both G12C and C118A amino acid substitutions and an N-terminal His-tag, was pre-incubated with a compound dose-response titration for 5 min in assay buffer (25 mM HEPES pH 7.4, 10 mM MgCl2, and 0.01% Triton X-100). Following compound pre-incubation, purified SOS protein (aa 564-1049) and GTP (Roche 10106399001) were added to the assay wells and incubated for an additional 30 min. To determine the extent of inhibition of SOS-mediated nucleotide exchange, purified GST-tagged cRAF (aa 1-149), nickel chelate AlphaLISA acceptor beads (PerkinElmer AL108R), and AlphaScreen glutathione donor beads (PerkinElmer 6765302) were added to the assay wells and incubated for 5 minutes. The assay plates were then read on a PerkinElmer EnVision Multilabel Reader, using AlphaScreen® technology, and data were analyzed using a 4-parameter logistic model to calculate IC50 values.

Sequence of GDP-bound KRAS protein (aa 1-169), containing both G12C and C118A amino acid substitutions (P01116 other isoform, or with tags, fused parts or gaps G12C/C118A): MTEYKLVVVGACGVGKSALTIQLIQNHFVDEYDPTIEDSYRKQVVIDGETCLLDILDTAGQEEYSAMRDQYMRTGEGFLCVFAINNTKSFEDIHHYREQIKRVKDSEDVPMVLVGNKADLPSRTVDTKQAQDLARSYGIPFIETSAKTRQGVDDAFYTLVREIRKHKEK

`C=CC(=O)N1C[C@H](C)N(c2nc(=O)n(-c3c(C)ccnc3C(C)C)c3nc(-c4c(O)cccc4F)c(F)cc23)C[C@H]1C` [Example 5, 4-((2S,5R,M)-4-Acryloyl-2,5-dimethylpiperazin-1-yl)-6-fluoro-7-(2-fluoro-6-hydroxyphenyl)-1-(2-isopropyl-4-methylpyridin-3-yl)pyrido[2,3-d]pyrimidin-2(1H)-one] gave an IC50 [1] of 46 nM and an IC50 [2] of 79 nM.

`C=CC(=O)N1[C@H](C)CN(c2nc(=O)n(-c3c(C)ccnc3C(C)C)c3nc(-c4ccccc4F)c(Cl)cc23)C[C@@H]1C` (atropisomer, axis not shown; (M)) [Example 13, (M)-4-(4-Acryloyl-cis-3,5-dimethylpiperazin-1-yl)-6-chloro-7-(2-fluorophenyl)-1-(2-isopropyl-4-methylpyridin-3-yl)pyrido[2,3-d]pyrimidin-2(1H)-one] was tested, and the IC50 [1] was 46 nM and the IC50 [2] was 53 nM.

`C=CC(=O)N1C[C@H](C)N(c2nc(=O)n(-c3c(C(C)C)ncnc3C(C)C)c3nc(-c4c(O)cccc4F)c(Cl)cc23)C[C@H]1C` [Example 8, 4-((2S,5R)-4-Acryloyl-2,5-dimethylpiperazin-1-yl)-6-chloro-1-(4,6-diisopropylpyrimidin-5-yl)-7-(2-fluoro-6-hydroxyphenyl)pyrido[2,3-d]pyrimidin-2(1H)-one] gave an IC50 [1] of 15 nM and an IC50 [2] of 30 nM.

With `C=CC(=O)N1C[C@H](C)N(c2nc(=O)n(-c3c(C)ccnc3C(C)C)c3nc(-c4ccccc4F)c(Cl)cc23)C[C@H]1C` [Example 1, 4-((2S,5R,M)-4-Acryloyl-2,5-dimethylpiperazin-1-yl)-6-chloro-7-(2-fluorophenyl)-1-(2-isopropyl-4-methylpyridin-3-yl)pyrido[2,3-d]pyrimidin-2(1H)-one] the IC50 [1] was 26 nM and the IC50 [2] was 40 nM.

`C=CC(=O)N1C[C@H](C)N(c2nc(=O)n(-c3c(C(C)C)ncnc3C(C)C)c3nc(-c4c(N)cccc4F)c(Cl)cc23)C[C@H]1C` [Example 9, 4-((2S,5R)-4-Acryloyl-2,5-dimethylpiperazin-1-yl)-7-(2-amino-6-fluorophenyl)-6-chloro-1-(4,6-diisopropylpyrimidin-5-yl)pyrido[2,3-d]pyrimidin-2(1H)-one] was tested, and the IC50 [1] was 21 nM and the IC50 [2] was 54 nM.
